From patent publication US20250066445A1, “OBESITY TREATMENT AND PREVENTION METHODS” (VAULT BIOSCIENCES, INC., priority 2022, published 2025) come the findings set out here.

Holding throughout (type): in vivo, human
The nature of assay [1]: Example 13 clinical study combining dulaglutide and fasting. The following applies: One-Meal-A-Day, dose weeks 1-4: 0.2/0.375/0.375/0.6 mg. The source says:
Example 13—Clinical Study of Combining Dulaglutide and Fasting Patients are subject to a combination HMT/HNT treatment protocol as described in Table 17 below. […] [table]

Assay [2] can be described thus: Example 15 clinical study combining dulaglutide and fasting. To be noted: 18-hour fasting, dose weeks 1-4: 0.2/0.375/0.375/0.6 mg. The source says:
Example 15—Clinical Study of Combining Dulaglutide and Fasting Patients are subject to a combination HMT/HNT treatment protocol as described in Table 19 below. […] [table]

Assay [3] is described as follows: Example 14 clinical study combining dulaglutide and fasting. To be noted: 15-hour fasting, dose weeks 1-4: 0.2/0.375/0.375/0.6 mg. The source says: Example 14—Clinical Study of Combining Dulaglutide and Fasting Patients are subject to a combination HMT/HNT treatment protocol as described in Table 18 below. […] [table]
Assay [4] in a line: Example 1 clinical study combining semaglutide (injection) and fasting, Patient 1. To be noted: One-Meal-A-Day. The source says:
Example 1—Clinical Study of Combining Semaglutide (Injection) and Fasting
Patient 1 was subject to a combination HMT/HNT treatment protocol as described below.

Assay [5] can be described thus: Example 2 clinical study combining semaglutide (injection) and fasting. The following applies: 15-hour fasting, dose weeks 1-4: .25/.50/.50/1 mg. The source says: Example 2—Clinical Study of Combining Semaglutide (injection) and Fasting Patients are subject to a combination HMT/HNT treatment protocol as described in Table 6 below. […] [table]
[6] abbreviates: no exercise, no calorie counting.
Where [7] appears, read: starting weight 282 lbs, 30 days, dose weeks 1-4: .25/.50/.50/1 mg, no exercise, no calorie counting.

As to Dulaglutide, the Hunger entry in assay [1], in assay [2] and in assay [3] was “no discernable or unusual hunger” throughout. The “Therapeutic effects (e.g. weight loss)” value in assay [1] (setting [6]), in assay [2] (setting [6]) and in assay [3] (setting [6]) was “Desirable therapeutics effects (e.g. weigh loss) are achieved” each time.
Semaglutide: the Hunger entry is given as “No discernable/unusual hunger” in assay [4] (30 days, dose weeks 1-4: .25/.50/.50/1 mg); “no discernable or unusual hunger” in assay [4] (30 days, dose weeks 1-4: .25/.50/.50/1 mg, listed as Semaglutide (Injection)); “no discernable or unusual hunger” in assay [5]. In assay [4] (in 30 days, no exercise, no caloric restrictions), the Weight lost was 30 pounds. Moreover, the “% Bodyweight Reduction” value in assay [4] (starting weight 282 lbs, 30 days, dose weeks 1-4: .25/.50/.50/1 mg) is given as −9.6%; in assay [4] (starting weight 282 lbs, 30 days, dose weeks 1-4: .25/.50/.50/1 mg, listed as Semaglutide (Injection)), “approximately 9.6%”. For the same substance, the Bodyweight reduction in assay [4] (setting [7]) is given as −30 lbs. For the same substance, the “Ending Weight” value in assay [4] (setting [7]) is given as 252 lbs. The “Therapeutic effects (e.g. weight loss)” value in assay [5] (setting [6]) is “Desirable therapeutics effects (e.g. weigh loss) are achieved”.
